{"source": "patent US20230017045A1", "about": "“PYRIDINE AND PYRIMIDINE CARBOXYLATE HERBICIDES AND METHODS OF USE THEREOF” (Dow AgroSciences LLC, priority 2017, published 2023)", "data": [{"system": "test plant species", "test": "Post-emergent herbicidal activity test (greenhouse, foliar spray, visual growth reduction)", "format": "in vivo", "conditions": "post-emergence, 336 h, ALOMY: blackgrass (Alopecurus myosuroides), 140 g ai/ha, 14 days after application, read-out: Visual Growth Reduction (%) 14 Days After Application, ALOMY", "method_in_brief": "(§1)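 Greenhouse plants at first–second true leaf stage sprayed overhead at 187 L/ha with compound in acetone/water/isopropanol/DMSO/crop oil/X-77 carrier; controls received solvent blank. Injury rated visually after 14 d on a 0–100% scale versus untreated and control plants, converted to growth reduction.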", "units": {"pest or weed control at 140 g/ha": "%"}, "values": [{"smiles": "O=C(O)c1nc(-c2ccc(C(F)(F)F)cc2Cl)ccc1Cl", "note": "[F61, 3-chloro-6-(2-chloro-4-(trifluoromethyl)phenyl)picolinic acid]", "pest or weed control at 140 g/ha": "60 to 74"}, {"smiles": "O=C(OCc1ccncc1)c1nc(-c2ccc(C(F)(F)F)cc2Cl)ccc1Cl", "note": "[F81, Pyridin-4-ylmethyl 3-chloro-6-(2-chloro-4-(trifluoromethyl)phenyl)picolinate]", "pest or weed control at 140 g/ha": "60 to 74"}]}, {"system": "test plant species", "test": "Post-emergent herbicidal activity test (greenhouse, foliar spray, visual growth reduction)", "format": "in vivo", "conditions": "post-emergence, 336 h, AMARE: redroot pigweed (Amaranthus retroflexus), 140 g ai/ha, 14 days after application, read-out: Visual Growth Reduction (%) 14 Days After Application, AMARE", "method_in_brief": "as §1", "units": {"pest or weed control at 140 g/ha": "%"}, "values": [{"smiles": "O=C(O)c1nc(-c2ccc(C(F)(F)F)cc2Cl)ccc1Cl", "note": "[F61, 3-chloro-6-(2-chloro-4-(trifluoromethyl)phenyl)picolinic acid]", "pest or weed control at 140 g/ha": "95 to 100"}, {"smiles": "O=C(OCc1ccncc1)c1nc(-c2ccc(C(F)(F)F)cc2Cl)ccc1Cl", "note": "[F81, Pyridin-4-ylmethyl 3-chloro-6-(2-chloro-4-(trifluoromethyl)phenyl)picolinate]", "pest or weed control at 140 g/ha": "95 to 100"}]}, {"system": "test plant species", "test": "Post-emergent herbicidal activity test (greenhouse, foliar spray, visual growth reduction)", "format": "in vivo", "conditions": "post-emergence, 336 h, AVEFA: wild oat (Avena fatua), 140 g ai/ha, 14 days after application, read-out: Visual Growth Reduction (%) 14 Days After Application, AVEFA", "method_in_brief": "as §1", "units": {"pest or weed control at 140 g/ha": "%"}, "values": [{"smiles": "O=C(O)c1nc(-c2ccc(C(F)(F)F)cc2Cl)ccc1Cl", "note": "[F61, 3-chloro-6-(2-chloro-4-(trifluoromethyl)phenyl)picolinic acid]", "pest or weed control at 140 g/ha": "60 to 74"}, {"smiles": "O=C(OCc1ccncc1)c1nc(-c2ccc(C(F)(F)F)cc2Cl)ccc1Cl", "note": "[F81, Pyridin-4-ylmethyl 3-chloro-6-(2-chloro-4-(trifluoromethyl)phenyl)picolinate]", "pest or weed control at 140 g/ha": "60 to 74"}]}, {"system": "test plant species", "test": "Post-emergent herbicidal activity test (greenhouse, foliar spray, visual growth reduction)", "format": "in vivo", "conditions": "post-emergence, 336 h, CHEAL: lambsquarters (Chenopodium album), 140 g ai/ha, 14 days after application, read-out: Visual Growth Reduction (%) 14 Days After Application, CHEAL", "method_in_brief": "as §1", "units": {"pest or weed control at 140 g/ha": "%"}, "values": [{"smiles": "O=C(O)c1nc(-c2ccc(C(F)(F)F)cc2Cl)ccc1Cl", "note": "[F61, 3-chloro-6-(2-chloro-4-(trifluoromethyl)phenyl)picolinic acid]", "pest or weed control at 140 g/ha": "95 to 100"}, {"smiles": "O=C(OCc1ccncc1)c1nc(-c2ccc(C(F)(F)F)cc2Cl)ccc1Cl", "note": "[F81, Pyridin-4-ylmethyl 3-chloro-6-(2-chloro-4-(trifluoromethyl)phenyl)picolinate]", "pest or weed control at 140 g/ha": "75 to 84"}]}, {"system": "test plant species", "test": "Post-emergent herbicidal activity test (greenhouse, foliar spray, visual growth reduction)", "format": "in vivo", "conditions": "post-emergence, 336 h, CIRAR: canada thistle (Cirsium arvense), 140 g ai/ha, 14 days after application, read-out: Visual Growth Reduction (%) 14 Days After Application, CIRAR", "method_in_brief": "as §1", "units": {"pest or weed control at 140 g/ha": "%"}, "values": [{"smiles": "O=C(O)c1nc(-c2ccc(C(F)(F)F)cc2Cl)ccc1Cl", "note": "[F61, 3-chloro-6-(2-chloro-4-(trifluoromethyl)phenyl)picolinic acid]", "pest or weed control at 140 g/ha": "85 to 94"}, {"smiles": "O=C(OCc1ccncc1)c1nc(-c2ccc(C(F)(F)F)cc2Cl)ccc1Cl", "note": "[F81, Pyridin-4-ylmethyl 3-chloro-6-(2-chloro-4-(trifluoromethyl)phenyl)picolinate]", "pest or weed control at 140 g/ha": "95 to 100"}]}, {"system": "test plant species", "test": "Post-emergent herbicidal activity test (greenhouse, foliar spray, visual growth reduction)", "format": "in vivo", "conditions": "post-emergence, 336 h, CYPES: yellow nutsedge (Cyperus esculentus), 140 g ai/ha, 14 days after application, read-out: Visual Growth Reduction (%) 14 Days After Application, CYPES", "method_in_brief": "as §1", "units": {"pest or weed control at 140 g/ha": "%"}, "values": [{"smiles": "O=C(O)c1nc(-c2ccc(C(F)(F)F)cc2Cl)ccc1Cl", "note": "[F61, 3-chloro-6-(2-chloro-4-(trifluoromethyl)phenyl)picolinic acid]", "pest or weed control at 140 g/ha": "0 to 29"}, {"smiles": "O=C(OCc1ccncc1)c1nc(-c2ccc(C(F)(F)F)cc2Cl)ccc1Cl", "note": "[F81, Pyridin-4-ylmethyl 3-chloro-6-(2-chloro-4-(trifluoromethyl)phenyl)picolinate]", "pest or weed control at 140 g/ha": "0 to 29"}]}, {"system": "test plant species", "test": "Post-emergent herbicidal activity test (greenhouse, foliar spray, visual growth reduction)", "format": "in vivo", "conditions": "post-emergence, 336 h, DIGSA: crabgrass (Digitaria sanguinalis), 140 g ai/ha, 14 days after application, read-out: Visual Growth Reduction (%) 14 Days After Application, DIGSA", "method_in_brief": "as §1", "units": {"pest or weed control at 140 g/ha": "%"}, "values": [{"smiles": "O=C(O)c1nc(-c2ccc(C(F)(F)F)cc2Cl)ccc1Cl", "note": "[F61, 3-chloro-6-(2-chloro-4-(trifluoromethyl)phenyl)picolinic acid]", "pest or weed control at 140 g/ha": "95 to 100"}, {"smiles": "O=C(OCc1ccncc1)c1nc(-c2ccc(C(F)(F)F)cc2Cl)ccc1Cl", "note": "[F81, Pyridin-4-ylmethyl 3-chloro-6-(2-chloro-4-(trifluoromethyl)phenyl)picolinate]", "pest or weed control at 140 g/ha": "95 to 100"}]}, {"system": "test plant species", "test": "Post-emergent herbicidal activity test (greenhouse, foliar spray, visual growth reduction)", "format": "in vivo", "conditions": "post-emergence, 336 h, ECHCG: barnyardgrass (Echinochloa crus-galli), 140 g ai/ha, 14 days after application, read-out: Visual Growth Reduction (%) 14 Days After Application, ECHCG", "method_in_brief": "as §1", "units": {"pest or weed control at 140 g/ha": "%"}, "values": [{"smiles": "O=C(O)c1nc(-c2ccc(C(F)(F)F)cc2Cl)ccc1Cl", "note": "[F61, 3-chloro-6-(2-chloro-4-(trifluoromethyl)phenyl)picolinic acid]", "pest or weed control at 140 g/ha": "85 to 94"}, {"smiles": "O=C(OCc1ccncc1)c1nc(-c2ccc(C(F)(F)F)cc2Cl)ccc1Cl", "note": "[F81, Pyridin-4-ylmethyl 3-chloro-6-(2-chloro-4-(trifluoromethyl)phenyl)picolinate]", "pest or weed control at 140 g/ha": "95 to 100"}]}, {"system": "test plant species", "test": "Post-emergent herbicidal activity test (greenhouse, foliar spray, visual growth reduction)", "format": "in vivo", "conditions": "post-emergence, 336 h, IPOHE: ivy-leaf morning glory (Ipomoea hederacea), 140 g ai/ha, 14 days after application, read-out: Visual Growth Reduction (%) 14 Days After Application, IPOHE", "method_in_brief": "as §1", "units": {"pest or weed control at 140 g/ha": "%"}, "values": [{"smiles": "O=C(O)c1nc(-c2ccc(C(F)(F)F)cc2Cl)ccc1Cl", "note": "[F61, 3-chloro-6-(2-chloro-4-(trifluoromethyl)phenyl)picolinic acid]", "pest or weed control at 140 g/ha": "95 to 100"}, {"smiles": "O=C(OCc1ccncc1)c1nc(-c2ccc(C(F)(F)F)cc2Cl)ccc1Cl", "note": "[F81, Pyridin-4-ylmethyl 3-chloro-6-(2-chloro-4-(trifluoromethyl)phenyl)picolinate]", "pest or weed control at 140 g/ha": "95 to 100"}]}, {"system": "test plant species", "test": "Post-emergent herbicidal activity test (greenhouse, foliar spray, visual growth reduction)", "format": "in vivo", "conditions": "post-emergence, 336 h, KCHSC: kochia (Bassia scoparia), 140 g ai/ha, 14 days after application, read-out: Visual Growth Reduction (%) 14 Days After Application, KCHSC", "method_in_brief": "as §1", "units": {"pest or weed control at 140 g/ha": "%"}, "values": [{"smiles": "O=C(O)c1nc(-c2ccc(C(F)(F)F)cc2Cl)ccc1Cl", "note": "[F61, 3-chloro-6-(2-chloro-4-(trifluoromethyl)phenyl)picolinic acid]", "pest or weed control at 140 g/ha": "85 to 94"}, {"smiles": "O=C(OCc1ccncc1)c1nc(-c2ccc(C(F)(F)F)cc2Cl)ccc1Cl", "note": "[F81, Pyridin-4-ylmethyl 3-chloro-6-(2-chloro-4-(trifluoromethyl)phenyl)picolinate]", "pest or weed control at 140 g/ha": "95 to 100"}]}, {"system": "test plant species", "test": "Post-emergent herbicidal activity test (greenhouse, foliar spray, visual growth reduction)", "format": "in vivo", "conditions": "post-emergence, 336 h, ORYSA: rice (Oryza sativa), 140 g ai/ha, 14 days after application, read-out: Visual Growth Reduction (%) 14 Days After Application, ORYSA", "method_in_brief": "as §1", "units": {"pest or weed control at 140 g/ha": "%"}, "values": [{"smiles": "O=C(O)c1nc(-c2ccc(C(F)(F)F)cc2Cl)ccc1Cl", "note": "[F61, 3-chloro-6-(2-chloro-4-(trifluoromethyl)phenyl)picolinic acid]", "pest or weed control at 140 g/ha": "45 to 59"}, {"smiles": "O=C(OCc1ccncc1)c1nc(-c2ccc(C(F)(F)F)cc2Cl)ccc1Cl", "note": "[F81, Pyridin-4-ylmethyl 3-chloro-6-(2-chloro-4-(trifluoromethyl)phenyl)picolinate]", "pest or weed control at 140 g/ha": "60 to 74"}]}, {"system": "test plant species", "test": "Post-emergent herbicidal activity test (greenhouse, foliar spray, visual growth reduction)", "format": "in vivo", "conditions": "post-emergence, 336 h, SETFA: giant foxtail (Setaria faberi), 140 g ai/ha, 14 days after application, read-out: Visual Growth Reduction (%) 14 Days After Application, SETFA", "method_in_brief": "as §1", "units": {"pest or weed control at 140 g/ha": "%"}, "values": [{"smiles": "O=C(O)c1nc(-c2ccc(C(F)(F)F)cc2Cl)ccc1Cl", "note": "[F61, 3-chloro-6-(2-chloro-4-(trifluoromethyl)phenyl)picolinic acid]", "pest or weed control at 140 g/ha": "85 to 94"}, {"smiles": "O=C(OCc1ccncc1)c1nc(-c2ccc(C(F)(F)F)cc2Cl)ccc1Cl", "note": "[F81, Pyridin-4-ylmethyl 3-chloro-6-(2-chloro-4-(trifluoromethyl)phenyl)picolinate]", "pest or weed control at 140 g/ha": "95 to 100"}]}, {"system": "test plant species", "test": "Post-emergent herbicidal activity test (greenhouse, foliar spray, visual growth reduction)", "format": "in vivo", "conditions": "post-emergence, 336 h, SORVU: grain sorghum (Sorghum vulgare), 140 g ai/ha, 14 days after application, read-out: Visual Growth Reduction (%) 14 Days After Application, SORVU", "method_in_brief": "as §1", "units": {"pest or weed control at 140 g/ha": "%"}, "values": [{"smiles": "O=C(O)c1nc(-c2ccc(C(F)(F)F)cc2Cl)ccc1Cl", "note": "[F61, 3-chloro-6-(2-chloro-4-(trifluoromethyl)phenyl)picolinic acid]", "pest or weed control at 140 g/ha": "85 to 94"}, {"smiles": "O=C(OCc1ccncc1)c1nc(-c2ccc(C(F)(F)F)cc2Cl)ccc1Cl", "note": "[F81, Pyridin-4-ylmethyl 3-chloro-6-(2-chloro-4-(trifluoromethyl)phenyl)picolinate]", "pest or weed control at 140 g/ha": "85 to 94"}]}, {"system": "test plant species", "test": "Post-emergent herbicidal activity test (greenhouse, foliar spray, visual growth reduction)", "format": "in vivo", "conditions": "post-emergence, 336 h, STEME: common chickweed (Stellaria media), 140 g ai/ha, 14 days after application, read-out: Visual Growth Reduction (%) 14 Days After Application, STEME", "method_in_brief": "as §1", "units": {"pest or weed control at 140 g/ha": "%"}, "values": [{"smiles": "O=C(O)c1nc(-c2ccc(C(F)(F)F)cc2Cl)ccc1Cl", "note": "[F61, 3-chloro-6-(2-chloro-4-(trifluoromethyl)phenyl)picolinic acid]", "pest or weed control at 140 g/ha": "0 to 29"}, {"smiles": "O=C(OCc1ccncc1)c1nc(-c2ccc(C(F)(F)F)cc2Cl)ccc1Cl", "note": "[F81, Pyridin-4-ylmethyl 3-chloro-6-(2-chloro-4-(trifluoromethyl)phenyl)picolinate]", "pest or weed control at 140 g/ha": "0 to 29"}]}, {"system": "test plant species", "test": "Post-emergent herbicidal activity test (greenhouse, foliar spray, visual growth reduction)", "format": "in vivo", "conditions": "post-emergence, 336 h, TRZAS: wheat, spring (Triticum aestivum), 140 g ai/ha, 14 days after application, read-out: Visual Growth Reduction (%) 14 Days After Application, TRZAS", "method_in_brief": "as §1", "units": {"pest or weed control at 140 g/ha": "%"}, "values": [{"smiles": "O=C(O)c1nc(-c2ccc(C(F)(F)F)cc2Cl)ccc1Cl", "note": "[F61, 3-chloro-6-(2-chloro-4-(trifluoromethyl)phenyl)picolinic acid]", "pest or weed control at 140 g/ha": "85 to 94"}, {"smiles": "O=C(OCc1ccncc1)c1nc(-c2ccc(C(F)(F)F)cc2Cl)ccc1Cl", "note": "[F81, Pyridin-4-ylmethyl 3-chloro-6-(2-chloro-4-(trifluoromethyl)phenyl)picolinate]", "pest or weed control at 140 g/ha": "75 to 84"}]}]}
